Earlier results on 1 substance are cited in patent US20050058675A1, “Fullerene compositions for ameliorating dermatological conditions” (priority 2003, published 2005).

This series has as its system mice. As to conditions: oral, about 0.5 mg/kg/day.

Regarding C60(>C(COOH)2)3 [C3], the “increase in mean survival relative to controls” value was around 20%. In addition, for the setting “controls 23.5+/−5.5 months, p=0.033”, the mean survival was 28.7+/−3.3 months.
